Measured values from patent EP4000613A1, “PHARMACEUTICAL COMBINATIONS COMPRISING A PEPTIDE CXCR4 INHIBITOR AND A TAXANE FOR TREATING CANCER” (Polyphor AG, priority 2020, dated 2022).

Assays:
[1] = tested on: other potential target receptors; assay: In vitro receptor binding studies (other receptors)
From the text: (§1) In a particular preferred embodiment the peptidic CXCR4 inhibitor is cyclo(-Tyr-His-Ala-Cys-Ser-Ala-^DPro-Dab-Arg-Tyr-Cys-Tyr-Gln-Lys-^DPro-Pro-) having a disulfide bond between Cys^4 and Cys^11, or pharmaceutically acceptable sals thereof. Cyclo(-Tyr-His-Ala-Cys-Ser-Ala-^DPro-Dab-Arg-Tyr-Cys-Tyr-Gln-Lys-^DPro-Pro-) having a disulfide bond between Cys^4 and Cys^11 is also referred as POL6326 herein or balixafortide. POL6326 is a cyclic synthetic peptide consisting of 16 amino acids and an antagonist of the highly conserved chemokine receptor CXCR4.

human CXCR4 receptor = assay: In vitro receptor binding studies (CXCR4)
From the text: as §1

[2] = tested on: breast cancer PDX Ma15169; assay: Tumor growth of breast cancer PDX Ma15169 in humanized NOG-EXL mice; format: in vivo; conditions: for rating according to RECIST criteria: based on T/C at last day of the study (day 183); for T/C value: last day of the study (day 183), tumor volume treated-to-control
Protocol: The study was designed to determine the response of the breast cancer PDX Ma15169 to treatment with Paclitaxel single agent, Balixafortide single agent and the combination of both in humanized NOG-EXL mice. Humanized NOG-EXL mice bearing the breast cancer PDX Ma15169 were treated with Paclitaxel and Balixafortide according to Table 1. Ma15169 is a patient derived xenograft (PDX) that was from a patient with an invasive ductal carcinoma (ypT1a ypNla R0 G3 L1 V1). The patient tumour was ER/PR as well as Her-2 negative. The tumour material was expanded in 9 donor mice (NOG, Taconic; https://www.taconic.com/mouse-model/ciea-nog-mouse) and fragments of about 10mm3 were each implanted subcutaneously into the flank of 50 humanized NOG-EXL mice; at this time, the passage number of Ma15169 was #4. Table 1: Course of events during the study
Female NOG-EXL mice with an age of about 4 weeks were used for the constitution of human immune cells. 24 hours before CD34+ cell inoculation mice were irradiated with 1Gy. Human CD34+ cells were isolated from fresh cord blood within the laboratories of EPO (Experimental Pharmacology & Oncology Berlin-Buch GmbH, Berlin-Buch, Germany) and preserved in liquid nitrogen until use. For the study MV16883 a pool of 5 different donors (CB AG 101, CB AG 97, CB KR 104, CB AG 106, CB AG 107) prepared. After thawing the cells were washed with PBS, pooled and washed again followed by Trypan blue staining and cell counting using Neubauer chamber. A total of 5x10^4 vital cells were resuspended in 200µl PBS and injected intravenously into the tail vain of all mice.
Determination of human immune cells by FACS was performed at days 46, 84 and 115 after cell inoculation (leucocytes CD45+, B cells CD19+, T cells CD3+, NK cells CD56+/CD16+ and monocytes CD14+; Human Immunophenotyping 8-color-Kit (Miltenyi)). The mice were weighed weekly and monitored for general health two times weekly.
The PDX Ma15169 is maintained by EPO (Experimental Pharmacology & Oncology Berlin-Buch GmbH, Berlin-Buch, Germany) as in vivo passage; the passage number for this study was #4. Donor mice (female NOG; Taconic) with tumors of about 1cm3 were used for the preparation of this study MV16883.
After removal of the tumor tissue from donor mice, the tumors were cut into fragments (2-3 mm diameter - approximately 10mm3) and placed in cooled RPMI 1640 culture medium until s.c. implantation within 30 minutes. The humanized NOG-EXL mice were anaesthetized with Etomidate and received a small incision in the skin of the left flank. The tumor fragments (one fragment/mouse) were implanted with tweezers and the incision closed with a suture clip (#310417, Covetrus GmbH). The clips were removed after seven days and mice controlled two times weekly by means of palpation. The implantation of tumor fragments was performed 122 days after the inoculation of CD34+ cells.
Tumor bearing mice were stratified into 4 treatment groups according to their tumor volumes at day 154 post CD34+ cell inoculation (32 days after tumor implantation). […] During stratification the animals were individually marked by earmarks.
Paclitaxel (Taxomedac™ comprising paclictaxel, citric acid, ethanol and PEG (30-50) castor oil) was given i.v. at a dose of 10 mg/kg twice weekly. Balixafortide was given s.c. at a dose of 20 mg/kg once daily for the first 5 days and twice daily for 5 days followed by treatment breaks of 2 days until the end of treatment period (Fig. 1). Total treatment duration was 29 days. […]

C[C@@H]1NC(=O)[C@H](Cc2c[nH]cn2)NC(=O)[C@H](Cc2ccc(O)cc2)NC(=O)[C@@H]2CCCN2C(=O)[C@H]2CCCN2C(=O)[C@H](CCCCN)NC(=O)[C@H](CCC(N)=O)NC(=O)[C@H](Cc2ccc(O)cc2)NC(=O)[C@@H]2CSSC[C@H](NC1=O)C(=O)N[C@@H](CO)C(=O)N[C@@H](C)C(=O)N1CCC[C@@H]1C(=O)N[C@@H](CCN)C(=O)N[C@@H](CCCNC(=N)N)C(=O)N[C@@H](Cc1ccc(O)cc1)C(=O)N2 [Balixafortide, cyclo(-Tyr-His-Ala-Cys-Ser-Ala-^DPro-Dab-Arg-Tyr-Cys-Tyr-Gln-Lys-^DPro-Pro-) having a disulfide bond between Cys^4 and Cys^11]
binding to other potential target receptors [1]: general lack of significant binding
affinity for the human CXCR4 receptor (human CXCR4 receptor): significant affinity
rating according to RECIST criteria [2]: progressive disease
optimum T/C value ([2]; day 168, Balixafortide 20 mg/kg s.c., p > 0.05): 79%
T/C value ([2]; Balixafortide 20 mg/kg s.c.): 107%

CC(=O)O[C@H]1C(=O)[C@@]2(C)[C@H]([C@H](OC(=O)c3ccccc3)[C@]3(O)C[C@H](OC(=O)[C@H](O)[C@@H](NC(=O)c4ccccc4)c4ccccc4)C(C)=C1C3(C)C)[C@]1(OC(C)=O)CO[C@@H]1C[C@@H]2O [Paclitaxel]
rating according to RECIST criteria [2]: stable disease
T/C value ([2]; Paclitaxel 10 mg/kg i.v. twice weekly, Balixafortide 20 mg/kg s.c.): 42%
